# Test results published in ChEMBL document CHEMBL3507680, “University of Dundee, Gates Library screen for HepG2 cell viability”.
# Assay: Human HepG2 cell viability assay in 384 well format
# Assay type: toxicity, cell-based
# Set-up: dose 125 nL, time 70.5 hour; cytotoxicity at 70.5 h: concentration not given beside the values
# Conditions: HepG2 cells, read-out: Inhibition
row,SMILES,cytotoxicity at 70.5 h [%]
1,CCN(CC)C(=O)N1CCOCC1c1c(C)nn(C)c1C (stereo unspecified),-10.5
2,Cc1nn(C)c(C)c1C1COCCN1C(=O)CSC(C)(C)C (stereo unspecified),-18.7
3,CC(C)N(C)S(=O)(=O)N(Cc1cccs1)CC1CCCO1 (stereo unspecified),37.4
4,CNC(=O)NC(=O)C(NCc1ccccc1)c1ccccc1 (stereo unspecified),17.9
5,COCCOc1ncccc1CNC(=O)N1CCCCCC1,-12.7
6,CCCN(CC1COc2ccccc2O1)C(=O)CCN1C(=O)CCC1=O (stereo unspecified),-18.8
7,CCC1CCCN(Cc2nc3ccccc3c(=O)[nH]2)C1 (stereo unspecified),-14
8,O=C(CCSc1ccccc1F)N1CCN(c2cnccn2)CC1,11
9,Cc1cc(C)c(CNC(=O)NCCNc2ccccn2)c(=O)[nH]1,-9.53
10,Cc1occc1C(=O)NCC(=O)NCCCOc1ccc(F)cc1,-17.7
11,O=C(CCSc1ccc(F)cc1)N1CCN(c2cnccn2)CC1,-14.2
12,COCCOc1ncccc1C(=O)N(C)c1nccs1,-14.2
13,CC(=O)c1cccc(NC(=O)NCCc2nnc[nH]2)c1,-10.6
14,CCC(=O)NCC(CC)Oc1cccc(F)c1 (stereo unspecified),-3.64
15,CCC(CNC(=O)CNC(C)=O)Oc1cccc(F)c1 (stereo unspecified),-9.82
16,Cc1nc(CC2CCCN(Cc3nc(N)c4ccccc4n3)C2)no1 (stereo unspecified),-7.12
17,Cc1ncc(S(=O)(=O)N(CC(C)C)c2cccc(O)c2)s1,-1.45
18,CC(C)n1cc(CN2CCCN(C(=O)C3(C)CCOCC3)CC2)cn1,-11.5
19,COc1ccccc1CN(Cc1cccs1)S(=O)(=O)N(C)C(C)C,-2.73
20,CC(C)N(C)S(=O)(=O)N(Cc1cccs1)Cc1cccs1,-12.9
21,Cc1nc(C(=O)N2CCCC(c3nc(C(C)C)cs3)C2)c[nH]1 (stereo unspecified),12.6
22,CCN(CC)CC(=O)N1CCN(CCc2ccncc2)CC1,-9.33

row,SMILES,cytotoxicity at 70.5 h [%]
1,COC(=O)C1CN(Cc2ccc(-c3ccncc3)cc2F)C[C@@H](C)O1 (stereo partly specified),11.8
2,COc1cccc(CNC(=O)CCOc2ccccc2C)c1,-10.3
3,COC(=O)c1ccc(Cl)c(S(=O)(=O)Nc2ccc(F)c(C(N)=O)c2)c1,-14.5
4,O=C(CC1CCN(c2ncnc3ccccc23)CC1)N1CCCC1,-6.95
5,CSCc1ccc(CNCCCN2CCOCC2)o1,-12.3
6,Cc1ccccc1OCCCC(=O)NCc1ccnc(O)c1,-11.5
7,CC(NC(=O)Nc1cccnc1N1CCOCC1)c1ccncc1 (stereo unspecified),6.43
8,CC(C)C(=O)NS(=O)(=O)CCc1ccccc1,-12.8
9,Cc1nc(Cn2cc(C#N)c(=O)c3ccccc32)no1,-5.75
10,Cc1noc(C)c1CN1CCCC1C(=O)OCc1ccccc1 (stereo unspecified),-10.7
11,Cc1oc(C)c(C(=O)NS(=O)(=O)c2ccc3c(c2)OCCO3)c1Br,-17.9
12,CC(=O)N1CCCN(C(C)C(=O)Nc2ccnn2C(C)C)CC1 (stereo unspecified),-3.26
13,COCCN(CCC#N)S(=O)(=O)c1cc(F)ccc1F,-2.55
14,NCC1(c2cccc(C(F)(F)F)c2)CCC1,-2.75
15,COc1cccc(CN(C)Cc2cc(C#N)ccc2F)c1OC,-9.77
16,CCCn1nc2c(cc1=O)CN(Cc1cc(C)no1)CC2,-8.28
17,CNS(=O)(=O)c1cccc(C(C)NCc2ccc(C)c(C)c2)c1 (stereo unspecified),19.3
18,NC(=O)C1CCN(c2cncc(-n3cccn3)n2)CC1,6.36
19,N#CCCN(C(=O)CN1CCCC1c1ccccc1Cl)c1ccccc1 (stereo unspecified),-11.7
20,COc1ccc(NC(=O)c2ccoc2C)c(N2CCN(C(C)=O)CC2)n1,-14.1
21,CC(=O)c1cccc(NC(=O)CN2CCCCC2C(=O)N2CCCC2)c1 (stereo unspecified),-13.4
22,CS(=O)(=O)c1ccc(NC(=O)CSc2ccc3c(c2)CCC3)cn1,-14.4

row,SMILES,cytotoxicity at 70.5 h [%]
1,CNC(=O)c1cnc(/C=C/c2ccc(O)c(OC)c2)s1,-14.3
2,COc1ccc(NC(=O)CN2CCCCC2C2OCCO2)cc1 (stereo unspecified),-4.96
3,CCS(=O)(=O)N(C)C1CCN(C(=O)c2cc(C)cc(C)c2)CC1,-14.2
4,CNS(=O)(=O)c1cccc(C(C)NCc2cccc(C)c2C)c1 (stereo unspecified),-12.2
5,Cc1ccc(C(CNCc2cccnc2)N2CCOCC2)s1 (stereo unspecified),-10.2
6,Cc1cc(C)n(-c2cncc(N3CCC(C(=O)N(C)C)CC3)n2)n1,11.2
7,c1ccc(C2CCCN(c3cncc(-n4cccn4)n3)CC2)cc1 (stereo unspecified),-9.13
8,CN1CCN(C(=O)C2SCCc3sccc32)CC1 (stereo unspecified),-6.9
9,COCc1nc2cc(NCc3cc[nH]n3)ccc2o1,-2.44
10,CNS(=O)(=O)c1cccc(C(C)NCc2ccc(F)c(F)c2)c1 (stereo unspecified),-6.64
11,CC(=O)Nc1nc(CN(C)CC2CCCN2c2cccnn2)cs1 (stereo unspecified),-12.7
12,FC(F)(F)C1CCCn2c(CNCc3cccs3)nnc21 (stereo unspecified),-7.88
13,Cn1cccc1CNCc1nnc2n1CCCC2C(F)(F)F (stereo unspecified),-5.37
14,CN(CC(=O)N1CCCC1c1noc(C2CC2)n1)S(C)(=O)=O (stereo unspecified),-12.3
15,O=C(CCn1cccn1)NCC(c1cccs1)N1CCOCC1 (stereo unspecified),25.6
16,CCOc1ncccc1CNC(=O)N1CCCC1c1cccs1 (stereo unspecified),-11.7
17,COc1cc(CNC(=O)N2CCCC2c2cc(C)no2)ccn1 (stereo unspecified),-15.1
18,CNC(=O)NC(=O)C(C)N1CCC(c2c[nH]c3ccc(OC)cc23)CC1 (stereo unspecified),-2.98
19,CCSCCC(=O)Nc1ncn(Cc2ccccc2)n1,-14.4
20,CC(SCC(=O)NC(N)=O)c1ccccc1F (stereo unspecified),-8.18
21,CN(C)C(=O)Cn1cc(C#N)c(=O)c2cc(Br)ccc21,1.29
22,CC(C)CNC(=O)c1cc(Br)c2c(c1)OCCO2,-7.77

row,SMILES,cytotoxicity at 70.5 h [%]
1,CCc1nc2n(n1)CCCC2Nc1nc(C2CC2)ns1 (stereo unspecified),-8.97
2,CCCS(=O)(=O)CC(=O)N1CCCC1c1noc(C2CC2)n1 (stereo unspecified),-17.8
3,O=C(Cn1cccn1)NCC(c1cccs1)N1CCCC1 (stereo unspecified),-11.9
4,CC(NC(=O)CCn1cccn1)c1cccs1 (stereo unspecified),-0.167
5,Cc1ccc(N2CCCC(N(C)Cc3nc(C)c(C)o3)C2)nn1 (stereo unspecified),-11.5
6,Cc1ccc(N2CCCC(N(C)Cc3noc(C4CC4)n3)C2)nn1 (stereo unspecified),-9.69
7,CSC(C)(C)CNC(=O)NC1CCN(CC=C(C)C)CC1,31.2
8,CSC(C)(C)CNC(=O)NC1CCN(CC2CC2)C1 (stereo unspecified),15.5
9,COc1ccc(Br)c(C(=O)NCC2CC2)c1,18.2
10,O=C1c2ccccc2C(=O)N1CC(O)Cn1nc(-c2cccs2)oc1=O (stereo unspecified),5.68
11,O=c1oc(-c2cccs2)nn1CC(O)c1ccccc1F (stereo unspecified),-4.66
12,CCCS(=O)(=O)N1CCC(NC(=O)c2ccc(C)s2)CC1,-8.95
13,CC(NC(=O)NCCCn1cccn1)c1ccccn1 (stereo unspecified),-5.57
14,CCc1ccc(C(=O)Nc2cccc(CN3CCCC3C(N)=O)c2)cc1 (stereo unspecified),0.802
15,CC(NC(=O)NCCCn1cccn1)c1ccncc1 (stereo unspecified),-10.8
16,O=C(CCN1CCCC1c1cccc2c1OCCO2)N1CCCCC1 (stereo unspecified),-6.86
17,NC(=O)NC(=O)CCN1CCCC1c1cccc2c1OCCO2 (stereo unspecified),-11.6
18,CCc1nc(CCNC(=O)Nc2cc(C(N)=O)ccc2OC)cs1,-12.4
19,CCNC(=O)CCN1CCCC1c1cccc2c1OCCO2 (stereo unspecified),-7.15
20,Cc1cccc(NC(=O)[C@@H]2CCCN2Cc2nc3ccccc3o2)n1,4.7
